Data: publication PMC10349806 (Nature Communications, 2023)
Several values for one entry are separate records, joined by “and”; a condition that tells them apart may be missing. Equal values may be shown once.

Biological target: T1, PfCRT variant E278A (Plasmodium falciparum, UniProt Q9N623, A220S/E278A/I356T/K76T/M74I/N326S/N75E/Q271E/R371I)
T1 sequence (Q9N623 1-424 M74I/N75E/K76T/A220S/Q271E/E278A/N326S/I356T/R371I): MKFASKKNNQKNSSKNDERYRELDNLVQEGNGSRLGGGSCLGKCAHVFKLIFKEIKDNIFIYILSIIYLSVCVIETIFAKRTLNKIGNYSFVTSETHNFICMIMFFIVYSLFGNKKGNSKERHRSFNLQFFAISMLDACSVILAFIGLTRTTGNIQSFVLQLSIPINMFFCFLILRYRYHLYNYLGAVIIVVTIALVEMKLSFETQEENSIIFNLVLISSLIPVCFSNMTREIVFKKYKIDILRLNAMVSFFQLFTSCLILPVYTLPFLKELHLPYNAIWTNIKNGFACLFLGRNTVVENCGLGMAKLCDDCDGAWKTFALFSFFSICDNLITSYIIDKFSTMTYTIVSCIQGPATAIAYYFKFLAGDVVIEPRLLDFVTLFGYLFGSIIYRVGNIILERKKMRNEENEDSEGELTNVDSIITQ
Assay: CQ uptake assay, oocytes expressing E278A
Format: cell-based
Experimental: Site-directed mutagenesis of PfCRT^Dd2 was performed as described using the megaprimer method with overlap extension[21],[54]. The primer pairs used are listed in Supplementary Table 6. Please note that a codon-optimized and oocyte-adapted version of PfCRT^Dd2 was used[22] (Supplementary Fig. 16). The resulting DNA fragment was cloned into the SP64T expression vector and verified by sequencing.
Oocytes were obtained as described previously. Briefly, adult (>2 years old) female X. laevis frogs (NASCO) were anesthetized in a cooled solution of ethyl 3-amino benzoate methanesulfonate (0.1%, w/v), followed by a surgical removal of parts of the ovary. The ovary lobes were carefully dissected and small pieces of oocytes were incubated in Ca^2+-free ND96 buffer (96 mM NaCl, 2 mM KCl, 1 mM MgCl2 buffered with 5 mM HEPES/NaOH, pH 7.5) supplemented with collagenase D (0.1%, w/v; Roche), BSA (0.5%, w/v), and 9 mm Na2HPO4 at 18 °C for 14-16 h while gentle shaking. After incubation, the oocytes were carefully washed several times with ND96 buffer (96 mM NaCl, 2 mM KCl, 1.8 mM CaCl2, 1 mM MgCl2 buffered with 5 mM HEPES/NaOH, pH 7.5) supplemented with 100 mg l^−1 gentamycin). Defolliculated and healthy-looking stage V-VI oocytes were manually selected for RNA microinjection. The RNA was generated as following: The codon-optimized sequences of PfCRT variants were cloned into the pSP64T expression vector. After vector linearization using the restriction endonucleases BamHI or SalI (New England Biolabs), transcription was performed using the in vitro SP6 mMessage mMachine Kit (Ambion)[34]. The obtained RNA was kept at −80 °C and diluted with nuclease-free water to a concentration of 0.6 μg μl^−1. Precision-bore glass capillary tubes (3.5-inch glass capillaries; Drummond Scientific Co.) were pulled on a vertical puller (P-87 Flaming/Brown micropipette puller, Sutter Instrument Co.), graduated, and placed on a microinjector (Nanoject II Auto-Nanoliter Injector, Drummond Scientific Co.). 50 nl of nuclease-free water alone (control oocytes) or 50 nl of 0.6 μg μl^−1 RNA were injected under stereomicroscopic control. Injected oocytes were incubated for 46–72 h at 18 °C with twice-daily buffer changes before usage in experiments.
Drug uptake assays were performed as described previously[21],[22],[24],[34]. […] The direction of radio-labeled drug transport is here from the mostly acidic extracellular solution (pH 4.5 or 6.0, as indicated) into the oocyte cytosol (pH ∼ 7.2), which corresponds to the efflux of drug from the acidic digestive vacuole (pH 5.2) into the parasite cytoplasm (pH 7.2). The topology of PfCRT in the oolemma is such that both the N- and C-terminus face the extracellular milieu[3],[22]. In the parasite, the N- and C-terminus face the lumen of the digestive vacuole. CQ uptake kinetics were performed by incubating oocytes in ND96 buffer adjusted to a pH of 4.5, 5.0, 5.5, or 6.0 and supplemented with 50 nM [^3H]CQ and one of 7 different CQ concentrations (10 µM, 50 µM, 100 µM, 200 µM, 300 µM, 400 µM, 500 µM CQ). The reaction was stopped at the 60 min time point, which is in the linear uptake range[22],[34] (Supplementary Fig. 17). […] The radioactivity of each sample was measured using a liquid scintillation analyzer Tri-Carb 4910 TR (PerkinElmer). Oocytes that were injected with water instead of RNA were analyzed in parallel, representing the uptake of a drug by diffusion and/or endogenous permeation pathways. […]

[1] = E278A, 50 µM CQ, 1 h, mean ± SEM

With `CCN(CC)CCCC(C)Nc1ccnc2cc(Cl)ccc12` (centres unmarked) [CQ, chloroquine] the “Activity at pH 4.5” value [1] was 1.17 ± 0.07 pmol h-1 oocyte-1, the “Activity at pH 6.0” value [1] was 2.21 ± 0.24 pmol h-1 oocyte-1 and the R-value (E278A, CQ transport at pH 4.5 / pH 6.0) was 0.56 ± 0.10. For the same compound, the “E278A transport activity pH 4.5” value (pH 4.5, single replicates, Fig 1d left) was 1.19 pmol oocyte-1 h-1 and 1.00 pmol oocyte-1 h-1 and 1.31 pmol oocyte-1 h-1 and the “E278A transport activity pH 6.0” value (pH 6.0, single replicates, Fig 1d left) was 2.40 pmol oocyte-1 h-1 and 2.59 pmol oocyte-1 h-1 and 1.63 pmol oocyte-1 h-1.
